From PubChem BioAssay (NCI)
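In this assay, cells in 96-well plates receive the compound at five concentrations for 48 hours. Endpoints are linearly interpolated between the surrounding concentrations. GI50 marks 50% less growth. At the TGI there is no net growth.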

Legend:
Test in all cases: inhibition of tumour cell growth, NCI panel, 48 h
[1] = system: KM12 colon
[2] = system: SNB-19 CNS
[3] = system: DU-145 prostate
[4] = system: COLO 205 colon
[5] = system: 786-0 renal
[6] = system: HOP-62 NSCLC
[7] = system: NCI/ADR-RES ovarian
[8] = system: T-47D breast
[9] = system: SK-OV-3 ovarian
[10] = system: OVCAR-3 ovarian
[11] = system: PC-3 prostate
[12] = system: HCT-15 colon
[13] = system: HT29 colon
[14] = system: HL-60(TB) leukemia
[15] = system: MDA-MB-435
[16] = system: UACC-257 melanoma
[17] = system: NCI-H226 lung
[18] = system: HOP-92 NSCLC
[19] = system: RXF 393 renal
[20] = system: SF-268 CNS
[21] = system: ACHN renal
[22] = system: BT-549 breast
[23] = system: SNB-75 CNS
[24] = system: SW-620 colon
[25] = system: MALME-3M melanoma
[26] = system: EKVX NSCLC
[27] = system: TK-10 renal
[28] = system: NCI-H23 lung
[29] = system: OVCAR-5 ovarian
[30] = system: SK-MEL-5 melanoma
[31] = system: SK-MEL-28 melanoma
[32] = system: UO-31 renal
[33] = system: SN12C renal
[34] = system: CAKI-1 renal
[35] = system: U251 CNS
[36] = system: IGROV1 ovarian
[37] = system: MDA-MB-231 breast
[38] = system: MCF7 breast
[39] = system: OVCAR-8 ovarian
[40] = system: A549 NSCLC
[41] = system: A498 renal
[42] = system: OVCAR-4 ovarian
[43] = system: UACC-62 melanoma
[44] = system: SF-539 CNS
[45] = system: SK-MEL-2 melanoma
[46] = system: M14 melanoma
[47] = system: HCT-116 colon
[48] = system: NCI-H460 lung
[49] = system: NCI-H522 lung
[50] = system: LOX IMVI melanoma
[51] = system: HS 578T breast
[52] = system: SF-295 CNS
[53] = system: K-562 leukemia
[54] = system: MOLT-4 leukemia
[55] = system: HCC-2998 colon
[56] = system: CCRF-CEM leukemia
[57] = system: RPMI-8226 leukemia

SMILES: CCOC(=O)C1=C(C)NC(=O)NC1c1ccc(N(CCCl)CCCl)cc1Cl (configuration not stated)
- TGI [1]: 33.9 µM
- TGI [2]: 31.2 µM
- TGI [3]: 32.1 µM
- TGI [4]: 32.6 µM
- TGI [5]: 29.2 µM
- TGI [6]: 28.5 µM
- TGI [7]: 30.3 µM
- TGI [8]: 19.5 µM
- TGI [9]: 33.6 µM
- TGI [10]: 28.8 µM
- TGI [11]: 28.5 µM
- TGI [12]: 30.8 µM
- TGI [13]: 29.5 µM
- TGI [14]: 13.4 µM
- TGI [15]: 33.1 µM
- TGI [16]: 29.5 µM
- TGI [17]: 28.8 µM
- TGI [18]: 25.7 µM
- TGI [19]: 30.8 µM
- TGI [20]: 28.8 µM
- TGI [21]: 27.5 µM
- TGI [22]: 28.9 µM
- TGI [23]: 28.1 µM
- TGI [24]: 31.8 µM
- TGI [25]: 28.1 µM
- TGI [26]: 45.8 µM
- TGI [27]: 33.6 µM
- TGI [28]: 32.7 µM
- TGI [29]: 31.8 µM
- TGI [30]: 27.8 µM
- TGI [31]: 31.4 µM
- TGI [32]: 27.3 µM
- TGI [33]: 29.8 µM
- TGI [34]: 30.9 µM
- TGI [35]: 30.2 µM
- TGI [36]: 28.4 µM
- TGI [37]: 26.5 µM
- TGI [38]: 26.5 µM
- TGI [39]: 25.6 µM
- TGI [40]: 26.6 µM
- TGI [41]: 29.4 µM
- TGI [42]: 33.1 µM
- TGI [43]: 22.4 µM
- TGI [44]: 30.9 µM
- TGI [45]: 29.8 µM
- TGI [46]: 29.2 µM
- TGI [47]: 27.4 µM
- TGI [48]: 25.6 µM
- TGI [49]: 26.4 µM
- TGI [50]: 29.4 µM
- TGI [51]: 36.1 µM
- TGI [52]: 29.2 µM
- TGI [53]: 24.3 µM

SMILES: CCOc1cc(F)c([N+](=O)[O-])cc1[N+](=O)[O-]
- GI50 [1]: 1.81 µM
- TGI [1]: 3.49 µM
- GI50 [2]: 3.82 µM
- TGI [2]: 13.3 µM
- GI50 [3]: 1.99 µM
- TGI [3]: 4.04 µM
- GI50 [4]: 2.03 µM
- TGI [4]: 3.88 µM
- GI50 [5]: 3.77 µM
- TGI [5]: 13.9 µM
- GI50 [6]: 9.35 µM
- TGI [6]: 21.6 µM
- GI50 [7]: 2.88 µM
- TGI [7]: 8 µM
- GI50 [8]: 3.31 µM
- TGI [8]: 14.7 µM
- GI50 [9]: 14.5 µM
- TGI [9]: 27.6 µM
- GI50 [10]: 1.83 µM
- TGI [10]: 3.23 µM
- GI50 [11]: 4.63 µM
- TGI [11]: 18 µM
- GI50 [12]: 2.71 µM
- TGI [12]: 9.22 µM
- GI50 [54]: 2.85 µM
- TGI [54]: 8.02 µM
- GI50 [14]: 1.77 µM
- TGI [14]: 4.81 µM
- GI50 [15]: 2.59 µM
- TGI [15]: 7.31 µM
- GI50 [16]: 1.6 µM
- TGI [16]: 3.23 µM
- GI50 [17]: 2.81 µM
- TGI [17]: 8.48 µM
- GI50 [55]: 1.87 µM
- TGI [55]: 3.31 µM
- GI50 [19]: 1.89 µM
- TGI [19]: 3.37 µM
- GI50 [20]: 2.56 µM
- TGI [20]: 6.46 µM
- GI50 [21]: 2.02 µM
- TGI [21]: 4.81 µM
- GI50 [22]: 3.12 µM
- TGI [22]: 11.2 µM
- GI50 [23]: 3.58 µM
- TGI [23]: 14.1 µM
- GI50 [24]: 1.78 µM
- TGI [24]: 3.3 µM
- GI50 [56]: 2.68 µM
- TGI [56]: 6.4 µM
- GI50 [26]: 1.85 µM
- TGI [26]: 4.5 µM
- GI50 [27]: 2.91 µM
- TGI [27]: 10.1 µM
- GI50 [57]: 3.43 µM
- TGI [57]: 11.2 µM
- GI50 [28]: 2.42 µM
- TGI [28]: 5.56 µM
- GI50 [29]: 1.8 µM
- TGI [29]: 4.34 µM
- GI50 [30]: 2.99 µM
- TGI [30]: 8.4 µM
- GI50 [31]: 2.5 µM
- TGI [31]: 6.12 µM
- GI50 [33]: 2 µM
- TGI [33]: 4.32 µM
- GI50 [34]: 1.19 µM
- TGI [34]: 2.42 µM
- GI50 [35]: 1.69 µM
- TGI [35]: 3.24 µM
- GI50 [37]: 1.99 µM
- TGI [37]: 4.39 µM
- GI50 [38]: 0.886 µM
- TGI [38]: 17.3 µM
- GI50 [39]: 2.57 µM
- TGI [39]: 6.64 µM
- GI50 [40]: 3.68 µM
- TGI [40]: 14.9 µM
- GI50 [41]: 5.81 µM
- TGI [41]: 18.2 µM
- GI50 [42]: 1.92 µM
- TGI [42]: 3.48 µM
- GI50 [43]: 1.73 µM
- TGI [43]: 3.75 µM
- GI50 [44]: 1.85 µM
- TGI [44]: 3.85 µM
- GI50 [45]: 1.89 µM
- TGI [45]: 4.4 µM
- GI50 [46]: 1.67 µM
- TGI [46]: 3.03 µM
- GI50 [47]: 1.64 µM
- TGI [47]: 2.99 µM
- GI50 [48]: 2.38 µM
- TGI [48]: 5.35 µM
- GI50 [49]: 1.5 µM
- TGI [49]: 3.24 µM
- GI50 [50]: 1.66 µM
- TGI [50]: 3.02 µM
- GI50 [51]: 2.48 µM
- TGI [51]: 7.97 µM
- GI50 [52]: 3.19 µM
- TGI [52]: 12.8 µM
- GI50 [53]: 3.01 µM
- TGI [53]: 57 µM
